In patent US20080119467A1, “Purine Derivatives, Compositions Containing Them and Use Thereof” (AVENTIS PHARMA S.A., priority 2005, published 2008) one finds IC50 and melting point data, which are given here for 29 molecules.

The target in one data set is Hsp82 (Saccharomyces cerevisiae, UniProt P02829). The experiment in a line: Inhibition of the ATPase activity of Hsp82 in the enzymatic coupling system (pyruvate kinase / lactate dehydrogenase). Format: biochemical. The note with it: ATPase activity of Hsp82, PK/LDH enzymatic coupling system, 1 μM Hsp82, 250 μM ATP, 37° C., 340 nm. The source says: The formation of ADP due to the ATPase activity of Hsp82 was utilized for developing another method for evaluating the enzymatic activity of this enzyme by the application of an enzymatic coupling system employing pyruvate kinase (PK) and lactate dehydrogenase (LDH). In this spectrophotometric method of the kinetic type, the PK catalyzes the formation of ATP and pyruvate from phosphenol-pyruvate (PEP) and of ADP produced by HSP82. The pyruvate formed, which is a substrate of LDH, is then converted to lactate in the presence of NADH. In this case, the decrease in the concentration of NADH, measured from the decrease in absorbance at a wavelength of 340 nm, is proportional to the concentration of ADP produced by HSP82. The test products are incubated in a reaction volume of 100 μl of compound buffer of 100 mM Hepes-NaOH (pH 7.5), 5 mM MgCl2, 1 mM DTT, 150 mM KCl, 0.3 mM NADH, 2.5 mM PEP and 250 μM ATP. This mixture is preincubated at 37° C. for 30 min before adding 3.77 units of LDH and 3.77 units of PK. The reaction is initiated by addition of the product to be evaluated, at variable concentrations, and of Hsp82, at a concentration of 1 μM. Then the enzymatic activity of Hsp82 is measured, continuously, in a microplate reader, at 37° C., at a wavelength of 340 nm. The initial rate of the reaction is obtained by measuring the slope of the tangent of the recorded curve to the origin. The enzymatic activity is expressed as μM of ADP formed per minute. The effect of the various products tested is expressed as percentage inhibition of the ATPase activity. The inhibitory activities on the ATPase activity of Hsp82 obtained with the products of the invention in the enzymatic coupling system are presented in the following table, according to the following criteria of inhibition of the ATPase activity of Hsp82: […]
Hsp82, sequence (P02829 whole entry): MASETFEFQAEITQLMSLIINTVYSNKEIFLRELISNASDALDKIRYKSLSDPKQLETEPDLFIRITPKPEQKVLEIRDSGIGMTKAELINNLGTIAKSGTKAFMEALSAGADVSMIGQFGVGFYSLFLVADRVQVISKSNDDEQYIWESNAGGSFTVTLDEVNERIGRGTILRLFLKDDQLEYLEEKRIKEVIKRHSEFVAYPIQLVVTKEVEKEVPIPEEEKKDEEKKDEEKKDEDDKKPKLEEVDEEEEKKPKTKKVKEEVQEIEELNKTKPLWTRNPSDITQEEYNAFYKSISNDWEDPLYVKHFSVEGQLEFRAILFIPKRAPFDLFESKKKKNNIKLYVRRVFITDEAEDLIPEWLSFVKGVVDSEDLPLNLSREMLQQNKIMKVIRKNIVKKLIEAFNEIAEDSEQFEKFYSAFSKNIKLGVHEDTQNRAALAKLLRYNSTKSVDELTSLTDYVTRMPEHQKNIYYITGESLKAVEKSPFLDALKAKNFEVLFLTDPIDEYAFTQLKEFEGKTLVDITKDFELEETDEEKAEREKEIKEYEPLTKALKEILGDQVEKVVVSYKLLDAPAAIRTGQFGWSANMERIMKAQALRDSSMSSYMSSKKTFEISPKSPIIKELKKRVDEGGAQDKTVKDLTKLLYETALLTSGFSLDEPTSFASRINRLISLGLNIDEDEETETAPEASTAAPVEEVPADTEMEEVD

SMILES strings stand for the structures. Where a name gives a salt, the structure may show the parent alone. Bounds are passed on as bounds.

In general, IC50 refers to the midpoint of a concentration-inhibition curve. High values mean a need for much substance, low ones inhibition by little substance. On to `Clc1nc(N2CCSCC2)c2nc[nH]c2n1` [Example 4, 2-chloro-6-(thiamorpholin-4-yl)-1H-purine], for which, at Hsp82, the IC50 is 1000 to 10000 nM.
Same read-out and setting: to `O=C(c1ccccc1)N1CCN(c2nc(Cl)nc3[nH]cnc23)CC1` [Example 15, 2-chloro-6-[4-(phenyl)carbonyl-piperazin-1-yl]1H-purine] belongs 1000 to 10000 nM; to `FC(F)(F)c1ccccc1N1CCN(c2nc(Cl)nc3[nH]cnc23)CC1` [Example 22, 2-chloro-6-[4-(2-trifluoromethyl-phenyl)-piperazin-1-yl]1H-purine], 1000 to 10000 nM.
As a reminder, the melting point is the temperature of the solid-liquid transition. The molecule `Clc1cccc(N2CCN(c3nc(Cl)nc4[nH]cnc34)CC2)c1` [Example 13, 2-Chloro-6-[4-(3-chloro-phenyl)-piperazin-1-yl]1H-purine] had a melting point of over 260 °C. The IC50 against Hsp82 was in the range of 10000 to 100000 nM.
At Hsp82, `NC(=O)c1cccnc1N1CCN(c2nc(Cl)nc3[nH]cnc23)CC1` [Example 27, 2-[4-(2-Chloro-9H-purin-6-yl)-piperazin-1-yl]-nicotinamide] showed a half-inhibitory concentration (IC50) of under 1000 nM.
On the same count and under the same terms, to `COc1cc(C(=O)N2CCN(c3nc(Cl)nc4[nH]cnc34)CC2)cc(OC)c1OC` [Example 14, 2-chloro-6-[4-(3,4,5-trimethoxy-phenyl)carbonyl-piperazin-1-yl]1H-purine] belongs 10000 to 100000 nM; to `COc1ccccc1N1CCN(c2nc(Cl)nc3[nH]cnc23)CC1` [Example 20, 2-Chloro-6-[4-(2-methoxy-phenyl)-piperazin-1-yl]-1H-purine monohydrochloride], 10000 to 100000 nM.
The molecule `Clc1nc(N2CCN(c3ccccc3)CC2)c2nc[nH]c2n1` [Example 9, 2-Chloro-6-(4-phenyl-piperazin-1-yl)-1H-purine monohydrochloride] had an IC50 against Hsp82 of 1000 to 10000 nM.
In turn, `Cl.Clc1cc(N2CCN(c3ccccn3)CC2)c2nc[nH]c2n1` [Example 30, 5-Chloro-7-(4-pyridin-2-yl-piperazin-1-yl)-3H-imidazo[4,5-b]pyridine monohydrochloride] returned a melting point of over 260 °C. Also, the IC50 against Hsp82 is under 1000 nM.
At Hsp82, `Clc1nc(N2CCCCC2)c2nc[nH]c2n1` [Example 5, 2-chloro-6-(piperidin-1-yl)-1H-purine] yielded an IC50 of under 1000 nM.
The same measure, in the same setting: to `COc1ccc(CN2CCN(c3nc(Cl)nc4[nH]cnc34)CC2)cc1OC` [Example 10, 2-chloro-6-[4-(3,4-dimethoxy-phenyl)methyl-piperazin-1-yl]1H-purine] belongs 10000 to 100000 nM.
Still for that read-out and setting: then `Clc1nc(N2CCN(c3ccccn3)CC2)c2cc[nH]c2n1` [Example 29, 2-Chloro-4-(4-pyridin-2-yl-piperazin-1-yl)-7H-pyrrolo[2,3-d]pyrimidine], with under 1000 nM; and `Clc1nc(N2CCN(c3ncccn3)CC2)c2nc[nH]c2n1` [Example 19, 2-Chloro-6-[4-(pyrimidin-2-yl)-piperazin-1-yl]-1H-purine monohydrochloride], with under 1000 nM.
In turn, `Cl.Clc1nc(N2CCN(Cc3ccccc3)CC2)c2nc[nH]c2n1` [Example 1, 2-Chloro-6-[4-(phenylmethyl)-piperazin-1-yl]-1H-purine monohydrochloride] returned a melting point of 264 to 266 °C. In addition, on Hsp82, the IC50 is under 1000 nM.
For the molecule `Clc1nc(N2CCN(Cc3ccccc3)CC2)c2cc[nH]c2n1` [Example 28, 4-(4-Phenylmethyl-piperazin-1-yl)-2-chloro-7H-pyrrolo[2,3-d]pyrimidine], the melting point stood at 250 °C. On Hsp82, this molecule had an IC50 of 1000 to 10000 nM.
`Clc1nc(NC2CCCC2)c2nc[nH]c2n1` [Example 7, 2-chloro-6-cyclopentylamino-1H-purine] returned an IC50 against Hsp82 of 10000 to 100000 nM.
Still for that read-out and setting: to `Clc1nc(N2CCC(Cc3ccccc3)CC2)c2nc[nH]c2n1` [Example 8, 2-Chloro-6-[4-(phenylmethyl)-piperidin-1-yl]-1H-purine monohydrochloride] belongs under 1000 nM.
`Fc1nc(N2CCN(c3ccccn3)CC2)c2nc[nH]c2n1` [Example 23, 2-Fluoro-[4-(pyridin-2-yl)-piperazin-1-yl]1H-purine] registered a melting point of over 260 °C. Besides, the IC50 against Hsp82 lay in the range of 1000 to 10000 nM.
The molecule `Clc1nc(N2CCOCC2)c2nc[nH]c2n1` [Example 3, 2-chloro-6-(morpholin-4-yl)-1H-purine] returned an IC50 against Hsp82 of 1000 to 10000 nM.
On the same count and under the same terms, then `Clc1nc(N2CCN(c3cccnc3)CC2)c2nc[nH]c2n1` [Example 11, 2-chloro-6-[4-(pyridin-3-yl)-piperazin-1-yl]1H-purine], with 1000 to 10000 nM; and `Clc1nc(N2CCN(C(c3ccccc3)c3ccccc3)CC2)c2nc[nH]c2n1` [Example 6, 2-chloro-6-[4-(diphenylmethyl)-piperazin-1-yl]1H-purine], with 1000 to 10000 nM.
On the same count and under the same terms, then `NC(=O)c1ccccc1N1CCN(c2cc(Cl)nc3[nH]cnc23)CC1` [Example 31, 2-[4-(5-Chloro-3H-imidazo[4,5-b]pyridin-7-yl)-piperazin-1-yl]-benzamide], with under 1000 nM; and `NC(=O)c1cccc(N2CCN(c3nc(Cl)nc4[nH]cnc34)CC2)c1` [Example 12, 2-chloro-6-[4-(3-carboxamido-phenyl)-piperazin-1-yl]1H-purine], with 1000 to 10000 nM; and `Clc1nc(N2CCN(c3ccc4ccccc4n3)CC2)c2nc[nH]c2n1` [Example 21, 2-Chloro-6-[4-(quinolein-2-yl)-piperazin-1-yl]-1H-purine monohydrochloride], with under 1000 nM.
In the case of `OCc1cc(F)ccc1N1CCN(c2nc(Cl)nc3[nH]cnc23)CC1` [Example 26, {2-[4-(2-Chloro-9H-purin-6-yl)-piperazin-1-yl]-5-fluoro-phenyl}-methanol], the half-maximal inhibitory concentration (IC50) against Hsp82 was under 1000 nM.
The same measure, in the same setting: then `Clc1nc(N2CCN(c3ccccn3)CC2)c2nc[nH]c2n1` [Example 2, 2-chloro-6-[4-(pyridin-2-yl)-piperazin-1-yl]1H-purine], with under 1000 nM; and `Cc1cccc(N2CCN(c3nc(Cl)nc4[nH]cnc34)CC2)n1` [Example 18, 2-Chloro-6-[4-(6-methyl-pyridin-2-yl)-piperazin-1-yl]-1H-purine monohydrochloride], with 1000 to 10000 nM.
On the same count and under the same terms, then `FC(F)(F)c1cccnc1N1CCN(c2nc(Cl)nc3[nH]cnc23)CC1` [Example 24, 2-Chloro-6-[4-(3-trifluoromethyl-pyridin-2-yl)-piperazin-1-yl]-9H-purine], with 1000 to 10000 nM; and `Clc1nc(N2CCC(Nc3ccccc3)CC2)c2nc[nH]c2n1` [Example 16, 2-Chloro-6-[4-(phenylamino)-piperidin-1-yl]-1H-purine monohydrochloride], with under 1000 nM.
